This note sets out measurements from US20240158446A1, “CYCLIC COMPOUND HAVING SELECTIVE INHIBITORY ACTION ON KRAS OVER HRAS AND NRAS” (CHUGAI SEIYAKU KABUSHIKI KAISHA, priority 2021, published 2024).

For test [1], the target named is GDP-bound KRAS wild-type protein (Homo sapiens, UniProt P01116). In words: Binding to KRAS by surface plasmon resonance (SPR), Single Cycle Kinetics. The note with it: SPR, Single Cycle Kinetics, GDP-bound KRAS wild-type protein; read-out: KRAS KD. For orientation: Surface plasmon resonance follows binding to a sensor surface in real time, without labels.
GDP-bound KRAS wild-type protein, sequence (P01116 whole entry): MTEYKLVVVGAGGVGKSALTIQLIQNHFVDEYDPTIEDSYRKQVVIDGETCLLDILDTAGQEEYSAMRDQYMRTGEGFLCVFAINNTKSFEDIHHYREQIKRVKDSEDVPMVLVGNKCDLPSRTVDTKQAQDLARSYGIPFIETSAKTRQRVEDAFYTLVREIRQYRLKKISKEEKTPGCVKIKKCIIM
For test [2], the target named is GDP-bound HRAS wild-type protein (Homo sapiens, UniProt P01112). Nature of the test: Binding to HRAS by surface plasmon resonance (SPR), Single Cycle Kinetics. Conditions: ratio of KD for GDP-bound HRAS wild-type protein to KD for KRAS, SPR.
GDP-bound HRAS wild-type protein, sequence (P01112 whole entry): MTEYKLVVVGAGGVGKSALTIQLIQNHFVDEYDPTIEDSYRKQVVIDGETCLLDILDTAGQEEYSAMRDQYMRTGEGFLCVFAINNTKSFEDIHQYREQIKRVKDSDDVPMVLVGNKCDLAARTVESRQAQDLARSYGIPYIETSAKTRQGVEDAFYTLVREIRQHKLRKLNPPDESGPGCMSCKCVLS
The target in test [3] is GDP-bound NRAS wild-type protein (Homo sapiens, UniProt P01111). In words: Binding to NRAS by surface plasmon resonance (SPR), Single Cycle Kinetics. Conditions: ratio of KD for GDP-bound NRAS wild-type protein to KD for KRAS, SPR.
GDP-bound NRAS wild-type protein, sequence (P01111 whole entry): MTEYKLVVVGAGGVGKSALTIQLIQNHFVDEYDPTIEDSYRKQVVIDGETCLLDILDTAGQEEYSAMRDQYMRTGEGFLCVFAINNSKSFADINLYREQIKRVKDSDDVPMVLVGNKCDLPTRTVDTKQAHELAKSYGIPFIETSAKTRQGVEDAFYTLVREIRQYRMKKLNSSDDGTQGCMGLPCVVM
In test [4] the test system is human lung cancer strain NCI-H441. In words: cells. The note with it: NCI-H441, 96 h, read-out: NCI-H441 IC50 (nM), NCI-H441 cell proliferation, 4 days, CellTiter-Glo.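 Further: cell proliferation inhibition after four days measured by CellTiter-Glo.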

A word on the Kd: it is the constant that tells how readily two partners part at equilibrium. As for `CC[C@H](C)[C@@H]1NC(=O)[C@H](CC)N(C)C(=O)C[C@@H](C(=O)N(C)CC)N(C)C(=O)[C@H](C2CCCC2)N(C)C(=O)C2(CC(C)(C)C2)NC(=O)[C@@H]2C[C@H](C)CN2C(=O)[C@H](CCc2ccc(C(F)(F)F)c(Cl)c2)NC(=O)CN(C)C(=O)[C@H](Cc2ccc(C)cc2)N2CC/C=C\C[C@@H](C2=O)N(C)C(=O)CN(C)C1=O` [PP1874], the Kd in test [1] amounted to 0.13 nM. For the same compound, the “HRAS/KRAS (KD ratio)” value in test [2] was “A (a compound having 10 or more and less than 20 is denoted as A)”. In addition, in test [3], the “NRAS/KRAS (KD ratio)” value is “A (a compound having 10 or more and less than 20 is denoted as A)”. Further, the IC50 in test [4] was 9.9 nM.

In the case of `CC[C@H](C)[C@@H]1NC(=O)[C@H](CC)N(C)C(=O)C[C@@H](C(=O)N(C)CC)N(C)C(=O)[C@H](C2CCCC2)N(C)C(=O)C2(CC(C)(C)C2)NC(=O)[C@@H]2C[C@@H](C)CN2C(=O)[C@H](CCc2ccc(C(F)(F)F)c(Cl)c2)NC(=O)CN(C)C(=O)[C@H](Cc2ccc(C)cc2)N2CC/C=C\C[C@@H](C2=O)N(C)C(=O)CN(C)C1=O` [PP1876], in test [1], the Kd came to 0.2 nM. Besides, the “HRAS/KRAS (KD ratio)” value in test [2] is “A (a compound having 10 or more and less than 20 is denoted as A)”. Moreover, in test [3], the “NRAS/KRAS (KD ratio)” value is “A (a compound having 10 or more and less than 20 is denoted as A)”. In test [4], the IC50 is 23 nM.

As to `CCO[C@@H]1C[C@H]2C(=O)NC3(CC(C)(C)C3)C(=O)N(C)[C@@H](C3CCCC3)C(=O)N(C)[C@H](C(=O)N(C)C)CC(=O)N(C)[C@@H](CC)C(=O)N[C@@H]([C@@H](C)CC)C(=O)N(C)CC(=O)N(C)[C@H]3C/C=C\CCN(C3=O)[C@@H](Cc3ccc(C)cc3)C(=O)N(C)CC(=O)N[C@@H](CCc3ccc(C(F)(F)F)c(Cl)c3)C(=O)N2C1` [PP1878], in test [1], the Kd came out at 0.063 nM. Besides, the “HRAS/KRAS (KD ratio)” value in test [2] is “A (a compound having 10 or more and less than 20 is denoted as A)”. Moreover, in test [3], the “NRAS/KRAS (KD ratio)” value was “A (a compound having 10 or more and less than 20 is denoted as A)”. Besides, the IC50 in test [4] came to 8.8 nM.

With `CCO[C@@H]1C[C@H]2C(=O)NC3(CCC3)C(=O)N(C)[C@@H](C3CCCC3)C(=O)N(C)[C@H](C(=O)N(C)CC)CC(=O)N(C)[C@@H](CC3CC3)C(=O)N[C@@H]([C@@H](C)CC)C(=O)N(C)CC(=O)N(C)[C@H]3C/C=C\CCN(C3=O)[C@@H](Cc3ccc(C)cc3)C(=O)N(C)CC(=O)N[C@@H](CCc3ccc(C(F)(F)F)c(OC)c3)C(=O)N2C1` [PP1879], in test [1], the Kd turned out to be 0.18 nM. Besides, the “HRAS/KRAS (KD ratio)” value in test [2] was “B (a compound having 3 or more and less than 10 is denoted as B)”. Besides, the “NRAS/KRAS (KD ratio)” value in test [3] is “A (a compound having 10 or more and less than 20 is denoted as A)”. In test [4], the IC50 amounted to 16.9 nM.

In the case of `CCO[C@@H]1C[C@H]2C(=O)NC3(CC(C)(C)C3)C(=O)N(C)[C@@H](C3CCCC3)C(=O)N(C)[C@H](C(=O)N(C)CC)CC(=O)N(C)[C@@H](CC)C(=O)N[C@@H]([C@@H](C)CC)C(=O)N(C)CC(=O)N(C)[C@H]3C/C=C\CCN(C3=O)[C@@H](Cc3ccc(C)cc3)C(=O)N(C)CC(=O)N[C@@H](CCc3ccc(C(F)(F)F)c(Cl)c3)C(=O)N2C1` [PP1880], the Kd in test [1] was determined as 0.15 nM. Moreover, the “HRAS/KRAS (KD ratio)” value in test [2] was “B (a compound having 3 or more and less than 10 is denoted as B)”. The “NRAS/KRAS (KD ratio)” value in test [3] was “A (a compound having 10 or more and less than 20 is denoted as A)”. For the same compound, in test [4], the IC50 was found to be 15.6 nM.

As to `CCO[C@@H]1C[C@H]2C(=O)NC3(CC(C)(C)C3)C(=O)N(C)[C@@H](C3CCCC3)C(=O)N(C)[C@H](C(=O)N(CC)CC)CC(=O)N(C)[C@@H](CC)C(=O)N[C@@H]([C@@H](C)CC)C(=O)N(C)CC(=O)N(C)[C@H]3C/C=C\CCN(C3=O)[C@@H](Cc3ccc(C)cc3)C(=O)N(C)CC(=O)N[C@@H](CCc3ccc(C(F)(F)F)c(OC)c3)C(=O)N2C1` [PP1881], the Kd in test [1] worked out at 0.29 nM. The “HRAS/KRAS (KD ratio)” value in test [2] is “A (a compound having 10 or more and less than 20 is denoted as A)”. In addition, the “NRAS/KRAS (KD ratio)” value in test [3] was “A (a compound having 10 or more and less than 20 is denoted as A)”. Also, the IC50 in test [4] is 16.7 nM.

Turning to `CCO[C@@H]1C[C@H]2C(=O)NC3(CC(C)(C)C3)C(=O)N(C)[C@@H](C3CCCC3)C(=O)N(C)[C@H](C(=O)N(CC)CC)CC(=O)N(C)[C@@H](CC)C(=O)N[C@@H]([C@@H](C)CC)C(=O)N(C)CC(=O)N(C)[C@H]3C/C=C\CCN(C3=O)[C@@H](Cc3ccc(C)cc3)C(=O)N(C)CC(=O)N[C@@H](CCc3ccc(C(F)(F)F)c(Cl)c3)C(=O)N2C1` [PP1883], in test [1], the dissociation constant (Kd) is 0.28 nM. In addition, the “HRAS/KRAS (KD ratio)” value in test [2] was “A (a compound having 10 or more and less than 20 is denoted as A)”. In test [3], the “NRAS/KRAS (KD ratio)” value is “A (a compound having 10 or more and less than 20 is denoted as A)”. The IC50 in test [4] stood at 24 nM.

For the compound `CC[C@H](C)[C@@H]1NC(=O)[C@H](CC(C)C)N(C)C(=O)C[C@@H](C(=O)N(CC)CC)N(C)C(=O)[C@H](C2CCCC2)N(C)C(=O)C2(CCC2)NC(=O)[C@@H]2C[C@H](C)CN2C(=O)[C@H](CCc2ccc(C(F)(F)F)c(OC)c2)NC(=O)CN(C)C(=O)[C@H](Cc2ccc(C)cc2)N2CC/C=C\C[C@@H](C2=O)N(C)C(=O)CN(C)C1=O` [PP1885], the Kd in test [1] amounted to 0.23 nM. Moreover, the “HRAS/KRAS (KD ratio)” value in test [2] is “A (a compound having 10 or more and less than 20 is denoted as A)”. Moreover, the “NRAS/KRAS (KD ratio)” value in test [3] was “AA (a compound having 20 or more is denoted as AA)”. Moreover, the IC50 in test [4] amounted to 18.3 nM.

For `CCO[C@@H]1C[C@H]2C(=O)NC3(CC(C)(C)C3)C(=O)N(C)[C@@H](C3CCCC3)C(=O)N(C)[C@H](C(=O)N(C)CC)CC(=O)N(C)[C@@H](CC)C(=O)N[C@@H]([C@@H](C)CC)C(=O)N(C)CC(=O)N(C)[C@H]3C/C=C\CCN(C3=O)[C@@H](Cc3ccc(C)cc3)C(=O)N(C)CC(=O)N[C@@H](CCc3cc(F)c(C(F)(F)F)c(F)c3)C(=O)N2C1` [PP1886], the Kd in test [1] was found to be 0.12 nM. The “HRAS/KRAS (KD ratio)” value in test [2] is “B (a compound having 3 or more and less than 10 is denoted as B)”. Besides, the “NRAS/KRAS (KD ratio)” value in test [3] was “A (a compound having 10 or more and less than 20 is denoted as A)”. Also, the IC50 in test [4] stood at 1.9 nM.

Take `CCC[C@H]1C(=O)N[C@@H]([C@@H](C)CC)C(=O)N(C)CC(=O)N(C)[C@H]2C/C=C\CCN(C2=O)[C@@H](Cc2ccc(C)cc2)C(=O)N(C)CC(=O)N[C@@H](CCc2ccc(C(F)(F)F)c(OC)c2)C(=O)N2C[C@@H](C)C[C@H]2C(=O)NC2(CC(C)(C)C2)C(=O)N(C)[C@@H](C2CCCC2)C(=O)N(C)[C@H](C(=O)N(C)CC)CC(=O)N1C` [PP1889]: the Kd in test [1] amounted to 0.21 nM. For the same compound, in test [2], the “HRAS/KRAS (KD ratio)” value was “B (a compound having 3 or more and less than 10 is denoted as B)”. Besides, the “NRAS/KRAS (KD ratio)” value in test [3] was “A (a compound having 10 or more and less than 20 is denoted as A)”. In test [4], the IC50 is 12.5 nM.

For `CCC[C@H]1C(=O)N[C@@H]([C@@H](C)CC)C(=O)N(C)CC(=O)N(C)[C@H]2C/C=C\CCN(C2=O)[C@@H](Cc2ccc(C)cc2)C(=O)N(C)CC(=O)N[C@@H](CCc2ccc(C(F)(F)F)c(OC)c2)C(=O)N2C[C@H](C)C[C@H]2C(=O)NC2(CC(C)(C)C2)C(=O)N(C)[C@@H](C2CCCC2)C(=O)N(C)[C@H](C(=O)N(C)CC)CC(=O)N1C` [PP1891], the Kd in test [1] came to 0.29 nM. Moreover, the “HRAS/KRAS (KD ratio)” value in test [2] was “A (a compound having 10 or more and less than 20 is denoted as A)”. Moreover, the “NRAS/KRAS (KD ratio)” value in test [3] was “A (a compound having 10 or more and less than 20 is denoted as A)”. The IC50 in test [4] amounted to 2.6 nM.

On to `CCC[C@H]1C(=O)N[C@@H]([C@@H](C)CC)C(=O)N(C)CC(=O)N(C)[C@H]2C/C=C\CCN(C2=O)[C@@H](Cc2ccc(C)cc2)C(=O)N(C)CC(=O)N[C@@H](CCc2ccc(C(F)(F)F)c(OC)c2)C(=O)N2C[C@H](OCC)C[C@H]2C(=O)NC2(CC(C)(C)C2)C(=O)N(C)[C@@H](C2CCCC2)C(=O)N(C)[C@H](C(=O)N(C)C)CC(=O)N1C` [PP1892], for which the Kd in test [1] turned out to be 0.074 nM. In addition, the “HRAS/KRAS (KD ratio)” value in test [2] was “B (a compound having 3 or more and less than 10 is denoted as B)”. In test [3], the “NRAS/KRAS (KD ratio)” value is “A (a compound having 10 or more and less than 20 is denoted as A)”. The IC50 in test [4] stood at 4.8 nM.

For the compound `CCC[C@H]1C(=O)N[C@@H]([C@@H](C)CC)C(=O)N(C)CC(=O)N(C)[C@H]2C/C=C\CCN(C2=O)[C@@H](Cc2ccc(C)cc2)C(=O)N(C)CC(=O)N[C@@H](CCc2ccc(C(F)(F)F)c(Cl)c2)C(=O)N2C[C@@H](C)C[C@H]2C(=O)NC2(CC(C)(C)C2)C(=O)N(C)[C@@H](C2CCCC2)C(=O)N(C)[C@H](C(=O)N(C)CC)CC(=O)N1C` [PP1893], in test [1], the Kd was 0.17 nM. Also, in test [2], the “HRAS/KRAS (KD ratio)” value was “B (a compound having 3 or more and less than 10 is denoted as B)”. Further, the “NRAS/KRAS (KD ratio)” value in test [3] was “A (a compound having 10 or more and less than 20 is denoted as A)”. The IC50 in test [4] came out at 18.5 nM.

Regarding `CCC[C@H]1C(=O)N[C@@H]([C@@H](C)CC)C(=O)N(C)CC(=O)N(C)[C@H]2C/C=C\CCN(C2=O)[C@@H](Cc2ccc(C)cc2)C(=O)N(C)CC(=O)N[C@@H](CCc2ccc(C(F)(F)F)c(Cl)c2)C(=O)N2C[C@H](OCC)C[C@H]2C(=O)NC2(CCC2)C(=O)N(C)[C@@H](C2CCCC2)C(=O)N(C)[C@H](C(=O)N(C)CC)CC(=O)N1C` [PP1895], the Kd in test [1] came to 0.13 nM. Moreover, in test [2], the “HRAS/KRAS (KD ratio)” value was “B (a compound having 3 or more and less than 10 is denoted as B)”. The “NRAS/KRAS (KD ratio)” value in test [3] is “A (a compound having 10 or more and less than 20 is denoted as A)”. Besides, the IC50 in test [4] was 15.6 nM.
